According to the supplement of paper PMC13380429:

How the values were obtained:
Conditions in all cases: 72 h
HepG2 [1] = assay: relative viability EC50 (midpoint between 100% and the lowest measured viability); higher = less toxic
Vero E6 [2] = assay: as above
U2OS [3] = assay: as above
Calu-3 [4] = assay: as above
HepG2 [5] = assay: drug sensitivity score (DSS) for viability; higher = more toxic; extreme values may be limits of the assay
Vero E6 [6] = assay: as above
U2OS [7] = assay: as above
Calu-3 [8] = assay: as above
Caco-2 [9] = assay: as above
HepG2 [10] = assay: cell viability relative to DMSO; higher = less toxic
Vero E6 [11] = assay: as above
U2OS [12] = assay: as above
Calu-3 [13] = assay: as above
Caco-2 [14] = assay: as above

Row | Compound | relative viability EC50 (HepG2 [1]) | relative viability EC50 (Vero E6 [2]) | relative viability EC50 (U2OS [3]) | relative viability EC50 (Calu-3 [4]) | drug sensitivity score (HepG2 [5]) | drug sensitivity score (Vero E6 [6]) | drug sensitivity score (U2OS [7]) | drug sensitivity score (Calu-3 [8]) | drug sensitivity score (Caco-2 [9]) | cell viability (HepG2 [10]; 1 nM) | cell viability (HepG2 [10]; 10 nM) | cell viability (HepG2 [10]; 100 nM) | cell viability (HepG2 [10]; 1000 nM) | cell viability (HepG2 [10]; 10000 nM) | cell viability (Vero E6 [11]; 1 nM) | cell viability (Vero E6 [11]; 10 nM) | cell viability (Vero E6 [11]; 100 nM) | cell viability (Vero E6 [11]; 1000 nM) | cell viability (Vero E6 [11]; 10000 nM) | cell viability (U2OS [12]; 1 nM) | cell viability (U2OS [12]; 10 nM) | cell viability (U2OS [12]; 100 nM) | cell viability (U2OS [12]; 1000 nM) | cell viability (U2OS [12]; 10000 nM) | cell viability (Calu-3 [13]; 1 nM) | cell viability (Calu-3 [13]; 10 nM) | cell viability (Calu-3 [13]; 100 nM) | cell viability (Calu-3 [13]; 1000 nM) | cell viability (Calu-3 [13]; 10000 nM) | cell viability (Caco-2 [14]; 1 nM) | cell viability (Caco-2 [14]; 10 nM) | cell viability (Caco-2 [14]; 100 nM) | cell viability (Caco-2 [14]; 1000 nM) | cell viability (Caco-2 [14]; 10000 nM)
1 | COc1ccc(C(=O)c2c(C)n(CCN3CCOCC3)c3cc(I)ccc23)cc1 [AM-630] | > 10 µM | > 10 µM | > 10 µM | > 10 µM | 0 | 0 | 0 | 0 | 2.1 | 93.3% | 82.5% | 104% | 94.3% | 91.6% | 97.8% | 96.5% | 102% | 100% | 97% | 96.2% | 101% | 97.2% | 98.5% | 94.1% | 92.9% | 102% | 104% | 102% | 92.9% | 97.3% | 113% | 81.1% | 94.2% | 69.7%
2 | OCCNC1CCCc2c1[nH]c1ccc(-c3ccccc3)cc21 (stereo not drawn) [casin] | – | > 10 µM | > 10 µM | – | 3.4 | 0.9 | 0.5 | 1.1 | 1.9 | 94.7% | 97.6% | 87.5% | 94.7% | 52.4% | 102% | 106% | 106% | 98.9% | 77.7% | 107% | 102% | 105% | 102% | 79% | 96.3% | 97.4% | 97.1% | 106% | 69.1% | 106% | 97.4% | 99.4% | 96.3% | 69.8%
3 | N[C@H](CO)C(=O)O [D-serine] | – | – | – | – | 0 | 0 | 0 | 0 | – | – | – | – | – | – | – | – | – | – | – | – | – | – | – | – | – | – | – | – | – | – | – | – | – | –
4 | OC[C@H]1O[C@H](O[C@H]2[C@H](O)[C@@H](O)[C@H](O)O[C@@H]2CO)[C@H](O)[C@@H](O)[C@@H]1O [D-(+)-maltose] | – | – | – | – | 0 | 0 | 0 | – | – | – | – | – | – | – | – | – | – | – | – | – | – | – | – | – | – | – | – | – | – | – | – | – | – | –
5 | Nc1ccc(S(=O)(=O)Nc2cnc3ccccc3n2)cc1 [sulfaquinoxaline] | – | – | – | – | 0 | 0 | 0 | 0.4 | – | – | – | – | – | – | – | – | – | – | – | – | – | – | – | – | – | – | – | – | – | – | – | – | – | –
6 | Cc1cc(C)nc(NS(=O)(=O)c2ccc(N)cc2)n1 [sulfamethazine] | – | – | – | – | 0 | 0 | 0 | 0 | – | – | – | – | – | – | – | – | – | – | – | – | – | – | – | – | – | – | – | – | – | – | – | – | – | –
7 | N=C(N)NC(=O)c1nc(Cl)c(N)nc1N [amiloride] | – | – | – | – | 0 | 0 | 0 | 0 | – | – | – | – | – | – | – | – | – | – | – | – | – | – | – | – | – | – | – | – | – | – | – | – | – | –
8 | C[C@H](NC(=O)C(C)(C)Oc1ccc(C(F)(F)F)cn1)[C@@H](Cc1ccc(Cl)cc1)c1cccc(C#N)c1 [taranabant] | – | > 10 µM | > 10 µM | > 10 µM | 1 | 0.4 | 0 | 0 | 1.9 | 105% | 106% | 111% | 103% | 72.4% | 103% | 96.5% | 99.6% | 97.8% | 85.5% | 100% | 95.8% | 96.3% | 95.2% | 90.9% | 96.5% | 95.5% | 94.4% | 107% | 86.6% | 97.3% | 108% | 105% | 94.4% | 73.4%
9 | C=CC(C)(C)c1cc(/C=C/C(=O)c2ccc(O)cc2)c(OC)cc1O [licochalcone-A] | – | > 10 µM | > 10 µM | > 10 µM | 1.5 | 0 | 0.1 | 0 | 2.8 | 99.9% | 100% | 74.4% | 99.2% | 78.4% | 103% | 101% | 90.2% | 98% | 102% | 95.7% | 96.5% | 100% | 95.8% | 88.7% | 96.1% | 100% | 106% | 98.1% | 91.7% | 92.4% | 83% | 105% | 88% | 70.8%
10 | CCNC(=O)C[C@@H]1N=C(c2ccc(Cl)cc2)c2cc(OC)ccc2-n2c(C)nnc21 [I-BET-762] | – | 1.04 µM | 1.69 µM | – | 6.9 | 9.8 | 4.5 | 3 | 2 | 111% | 112% | 98.8% | 64.9% | 50.2% | 98.1% | 104% | 104% | 59.9% | 15.9% | 94.7% | 101% | 90% | 87.9% | 47.8% | 104% | 116% | 104% | 93.7% | 60.8% | 94.8% | 100% | 88.6% | 91.3% | 72.8%
11 | N=C(N)N [guanidine] | > 10 µM | – | > 10 µM | – | 0 | 0.9 | 0 | – | – | 101% | 117% | 101% | 96.2% | 105% | 76.8% | 106% | 82.2% | 110% | 69.3% | 105% | 106% | 105% | 99.9% | 108% | – | – | – | – | – | – | – | – | – | –
12 | CC(C)Oc1ccc(-c2nn([C@@H](C)c3oc4ccc(F)cc4c(=O)c3-c3cccc(F)c3)c3ncnc(N)c23)cc1F [TGR-1202] | > 10 µM | – | – | – | 0 | – | – | – | – | 101% | 108% | 108% | 111% | 98.2% | – | – | – | – | – | – | – | – | – | – | – | – | – | – | – | – | – | – | – | –
13 | N.N.[Cl][Pt][Cl] [cisplatin] | – | – | – | – | 0 | 0 | 0 | 0.2 | – | – | – | – | – | – | – | – | – | – | – | – | – | – | – | – | – | – | – | – | – | – | – | – | – | –
14 | COc1ccc(C(=O)c2c(C)n(CCN3CCOCC3)c3ccccc23)cc1 [pravadoline] | > 10 µM | > 10 µM | – | – | 0 | 0 | 2.3 | – | 3.4 | 100% | 99.9% | 108% | 100% | 99.5% | 106% | 107% | 105% | 100% | 95.7% | 92% | 97.4% | 95.5% | 99.7% | 55.5% | – | – | – | – | – | 104% | 99.7% | 91.9% | 95.1% | 50.8%
15 | OCCN1CCN(CCCN2c3ccccc3Sc3ccc(Cl)cc32)CC1 [perphenazine] | – | – | > 10 µM | > 10 µM | 2.7 | 1.2 | 0 | 0.7 | 5.1 | 114% | 100% | 94.7% | 96% | 59.3% | 107% | 96.4% | 100% | 99.8% | 71.5% | 101% | 97% | 101% | 99.3% | 90.6% | 95.6% | 93.5% | 106% | 101% | 77.2% | 99.4% | 100% | 94.8% | 72.7% | 69.8%
16 | COc1ccc(C(C)(C)C)cc1CN[C@H]1C2CCN(CC2)[C@H]1C(c1ccccc1)c1ccccc1 [maropitant] | 3.17 µM | – | – | 3.24 µM | 4.9 | 1.7 | 2.5 | 5.4 | 1.3 | 107% | 104% | 98.9% | 100% | 11.6% | 100% | 106% | 100% | 101% | 62.6% | 99.5% | 98.9% | 101% | 93.9% | 67.3% | 108% | 104% | 110% | 101% | 1.7% | 103% | 96.4% | 101% | 103% | 67.4%
17 | CCC[C@H]1C(=O)N2C(N(C)C)=Nc3ccc(C)cc3N2C1=O [azapropazone] | – | – | – | – | 0 | 0 | 0 | 0 | – | – | – | – | – | – | – | – | – | – | – | – | – | – | – | – | – | – | – | – | – | – | – | – | – | –
18 | Cc1cc(Nc2ncnc3ccc(-c4ccc(CNCCS(C)(=O)=O)o4)cc23)ccc1Oc1ccn2ncnc2c1 [HER2-Inhibitor-1] | > 10 µM | > 10 µM | > 10 µM | 0.124 µM | 0.4 | 0 | 0.4 | 15 | 4.2 | 98.4% | 102% | 95.8% | 89.1% | 88.8% | 105% | 106% | 105% | 93.7% | 94.2% | 98.2% | 95.2% | 100% | 91.9% | 87.9% | 122% | 88.4% | 66.1% | 45.5% | 30.5% | 102% | 88.5% | 94.8% | 88.4% | 52.7%
19 | Cc1cc(I)ccc1Nc1c(C(=O)NOCC2CC2)cc(F)c(F)c1F | 0.814 µM | – | – | 1.26 µM | 9.7 | 5.2 | 2.3 | 5.7 | 5.2 | 88.7% | 107% | 94% | 55.5% | 21.1% | 89.6% | 100% | 90.4% | 77% | 52.6% | 100% | 97.1% | 99.8% | 89.6% | 74.7% | 97.2% | 100% | 103% | 80.3% | 45.1% | 93.3% | 99.5% | 98.3% | 75% | 54.8%
20 | CCn1c(-c2nonc2N)nc2c(C#CC(C)(C)O)ncc(OC[C@H]3CCCNC3)c21 | > 10 µM | > 10 µM | > 10 µM | – | 0 | 0 | 0.3 | 6.3 | 4.7 | 94.8% | 98.1% | 96.5% | 94.5% | 99.4% | 96.5% | 96% | 95.5% | 95.1% | 111% | 96.3% | 93.3% | 98.1% | 87.5% | 85.9% | 102% | 98.2% | 92.2% | 69.5% | 73.5% | 92.9% | 86.7% | 101% | 72.1% | 69.3%
21 | C[C@H](N)[C@H](O)c1cccc(O)c1 [metaraminol] | > 10 µM | > 10 µM | – | > 10 µM | 0 | 0 | – | 0 | – | 97.9% | 102% | 100% | 97.2% | 103% | 105% | 101% | 108% | 97.5% | 102% | – | – | – | – | – | 90.4% | 96.8% | 98.7% | 99.9% | 91.9% | – | – | – | – | –
